Assay results: patent US20040014772A1, “Compositions and methods for treating glomerular disorders” (priority 2000, published 2004)
“Also recorded” adds a separate entry of the source.

Assays:
[1] = system: glomerular epithelial cells GEC; experiment: Intracellular H2O2 generation in GEC (DCF fluorescence); type: cell-based, rat; details: PAN 1.5 mM; CM, PIP, RN or pyruvate 10 mM
Experimental: The principle of this method is that the oxidation of 2′,7′-dichlorofluorescin-diacetate (DCFH-DA) in the presence of H2O2 produces the highly fluorescent compound 2′,7′-dichlorofluroescin (DCF) which can be measured by fluorometer. The intracellular generation of H2O2 in GEC was tested utilizing the microplate assay procedure described by Rosenkranz et al (J. Immunol. Methods, 1992, 156:39-45.). In brief, confluent GEC were harvested by trypsin and suspended in HBSS. After an equilibration period at 37° C. with constant shaking, they were transferred to a microplate (2×10^5-1×10^6 cells/well) and then incubated at 37° C. with equal volumes of DCFH-DA (10 μl/ml) and PAN (1.5 mM) for the planned time period. At the end of the incubation, the fluorescent intensity of the cell suspension was read using a fluorescence spectrophotometer (wavelength 485/535 nm) capable of reading microtiter plates.

[2] = system: PAN-induced nephrotic syndrome; experiment: PAN-induced nephrotic syndrome: proteinuria and serum albumin; type: in vivo, rat; details: PAN-treated rats; for proteinuria: daily urine protein to day 7; for serum albumin: day 7
Experimental: Male Sprague-Dawley rats weighing 200-250 g were injected either saline or a single intravenous injection of PAN (Sigma, St. Louis) in a dose of 7.5 mg/100g BW (day 0) as described in Ueda et al, 19996, Kidney Intl. 49:370-373. Animals were housed in separate metabolic cages and allowed free access to rat chow (Purina). Daily urine protein excretion was determined and animals were sacrificed on day 7. Blood was obtained for the measurement of serum albumin and the evaluation of renal function as measured by blood urea nitrogen (BUN) and plasma creatinine. Cell fraction of the glomeruli was prepared for bleomycin detectable iron assay. The microsome fraction was utilized for the measurement of CYP content.
Two different general CYP inhibitors were used, cimetidine (CM) and piperonyl butoxide (PB). Cimetidine has imidazole and cyano groups that inhibit CYP by interacting with the heme moiety. […] To determine the effect of the CYP inhibitors in PAN- induced nephrotic syndrome, CM (120 mg/kg BW) was administered intraperitoneal 1 h prior to PAN injection and then twice a day. Piperonyl butoxide (PB) which yields a metabolite that binds to the heme moiety of CYP, was given intraperitoneal (400 mg/kg BW) 4h before PAN injection and then every other day.
PIP is believed to inhibit CYP2B1 by forming an inhibitory complex therewith. PIP was administered at a dose of 85 mg/kg of body weight (BW) by an intraperitoneal injection 16 hours prior to PAN injection and then once a day.

[3] = system: glomeruli of PAN-treated rats; experiment: Bleomycin detectable iron assay in glomeruli of PAN-treated rats; type: in vivo, rat; details: for bleomycin detectable iron content in the glomeruli: PAN-treated rats, CM 120 mg/kg, PB 400 mg/kg or PIP 85 mg/kg ip, 6 hours, day 4, day 7
Experimental: Glomeruli were isolated by a combination of sieving and differential centrifugation as described in Ueda et al, 19996, Kidney Intl. 49:370-373, and Baliga et al, 1992, Am. J. Physiol. 263:214-221. Glomeruli isolated from two rats were pooled together (as N of 1) for the isolation of microsomes. Iron capable of catalyzing free radical reactions was measured by bleomycin detectable iron assay as described by Gutteridge et al, 1981, Biochem. J. 199:263-265, Gutteridge et al, 1982, Biochem. J. 206:605-609, Baliga et al, 1993, Bioche.

[4] = system: microsomal CYP isolated from GEC; experiment: H2O2 generation and catalytic iron release from microsomes isolated from GEC; type: biochemical, rat; set-up: H2O2 generation from GEC microsomal fraction: dose or concentration left out as unconfirmed
Experimental: The generation of H2O2 and catalytic iron from microsomal CYP isolated from GEC was also analyzed.

[5] = system: glomerular epithelial cells GEC; experiment: PAN-induced cytotoxicity to GEC (trypan blue exclusion, LDH release); type: cell-based, rat; details: PAN 1.5 mM 48 h; preincubation CM 2 mM, PB 25 μM, RN 1 mM, PIP 0.2 mM, pyruvate 10 mM
Experimental: Rat GEC (kindly provided by both Dr. Saulo Klahr, Washington University School of Medicine, St. Louis, Mo., and Dr. […], University of Texas Health Science Center, San Antonio, Tex.) were maintained in RPMI-1640 medium supplemented with 10% FBS, 15 mM HEPES, insulin, penicillin, streptomycin and L-glutamine in a humidified atmosphere of 95% air-5% CO2 at 37° C. and fed at intervals of 3 days ([…] et al, 1995, Biochem. Biophys. 318(2):286-294). The cells were maintained in 75 Cm^2 tissue culture flasks and the monolayers were subcultured using 0.05% trypsin-0.53 mM EDTA in Hank's balanced salt solution (HBSS). For the experimental study, the cells were grown in 12-well tissue culture plate until confluence. On the day of experiment, the medium was discarded and the confluent GEC monolayer was washed twice with HBSS. The cells were then incubated with various concentrations of PAN (0, 0.1, 0.5, 1.0, 1.5, and 2.0 mM in HBSS) for different periods of time (0, 6 hours, 1 day, 2 days, 3 days and 4 days) at 37° C. At the end of the incubation, the incubation medium was discarded and the GEC monolayer was harvested by trypsinization with 0.05% trypsin-0.53 mM EDTA for 5 min at 37° C. Isolated cells were suspended in HBSS to give about 10^6 cells/ml. PAN-induced cytotoxicity to GEC was measured by the trypan blue exclusion assay (Baliga et al, 1996, Kidney Intl. 50:1118-1124) and lactate dehydrogenase (LDH) release assay (Baliga et al., 1998, Kidney Intl. 53:394-401.). The latter is the percentage of LDH released into the medium, to total LDH recovered from both medium and cellular fraction. […] After the incubation, the cell monolayers were washed twice with HBSS and then incubated with cytotoxic dose of PAN in HBSS for a period of time necessary to induce consistent cytotoxicity ([…], 48 h, based on the concentration and time course studies) at 37° C. PAN induced cytotoxicity on GEC was measured by trypan blue exclusion assay.

Row | Structure (SMILES) | intracellular H2O2 generation in GEC [1] | proteinuria [2] | proteinuria ([2]; listed as C<) | serum albumin [2] | bleomycin detectable iron content in the glomeruli [3] | H2O2 generation from GEC microsomal fraction ([4]; PAN) | catalytic iron release from GEC microsomal fraction ([4]; PAN 91.5 mM) as printed) | PAN-induced cytotoxicity to GEC [5] | catalytic iron content in the glomeruli (bleomycin detectable iron assay) ([3]; rats 7 days after PAN 7.5 mg/100 g BW iv, control value 39, N=3, P<0.01) [nmol/mg protein]
1 | CN/C(=N/CCSCc1nc[nH]c1C)NC#N [CM, cimetidine] | significantly decreased | substantial protection | significant protection | prevented | significantly prevent the increase; also recorded: significantly prevented this increase |  |  |  | 
2 | CN(C)c1ncnc2c1ncn2[C@@H]1O[C@H](CO)[C@@H](N)[C@H]1O [PAN, puromycin aminonucleoside] | marked increase | significant proteinuria on the fourth day; also recorded: nephrotic range proteinuria |  | markedly decreased; also recorded: significant decrease | markedly elevated | H2O2 generation in a time dependent fashion | marked increase | cytotoxic; also recorded: cell death in a time and dose dependent manner | 160
